Assays:
[1] = biological target: T1, Protein kinase C beta type (Homo sapiens, UniProt P05771); experiment: Inhibition of human Protein kinase C beta 2
[2] = biological target: T1, Protein kinase C beta type; experiment: Inhibition of human Protein kinase C beta 1
[3] = biological target: Protein kinase C gamma type (Homo sapiens, UniProt P05129); experiment: Inhibition of human Protein kinase C gamma
[4] = biological target: Protein kinase C alpha type (Homo sapiens, UniProt P17252); experiment: Inhibition of human Protein kinase C alpha
[5] = biological target: T2, Protein kinase C epsilon type (Homo sapiens, UniProt Q02156); experiment: Inhibition of human Protein kinase C epsilon
T2 sequence (Q02156 whole entry): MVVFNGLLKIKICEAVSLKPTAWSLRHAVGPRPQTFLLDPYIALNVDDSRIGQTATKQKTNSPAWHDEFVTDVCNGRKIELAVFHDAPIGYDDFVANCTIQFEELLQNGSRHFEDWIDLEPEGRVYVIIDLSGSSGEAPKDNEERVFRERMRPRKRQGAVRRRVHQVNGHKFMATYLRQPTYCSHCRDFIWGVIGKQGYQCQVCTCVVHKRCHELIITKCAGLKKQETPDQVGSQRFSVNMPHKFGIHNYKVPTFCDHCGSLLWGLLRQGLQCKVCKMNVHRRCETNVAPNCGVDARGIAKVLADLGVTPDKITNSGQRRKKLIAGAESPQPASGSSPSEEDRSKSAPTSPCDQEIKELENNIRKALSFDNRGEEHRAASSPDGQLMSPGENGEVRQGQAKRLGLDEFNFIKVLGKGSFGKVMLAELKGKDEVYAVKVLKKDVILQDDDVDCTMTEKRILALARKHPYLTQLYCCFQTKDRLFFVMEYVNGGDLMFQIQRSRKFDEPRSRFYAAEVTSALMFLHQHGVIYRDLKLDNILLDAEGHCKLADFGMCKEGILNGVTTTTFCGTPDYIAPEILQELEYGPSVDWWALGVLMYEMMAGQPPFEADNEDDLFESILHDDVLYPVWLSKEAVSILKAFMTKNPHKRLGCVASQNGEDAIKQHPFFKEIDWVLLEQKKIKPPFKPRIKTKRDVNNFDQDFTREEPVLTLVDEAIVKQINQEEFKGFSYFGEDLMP

[6] = biological target: Protein kinase C eta type (Homo sapiens, UniProt P24723); experiment: Inhibition of human Protein Kinase C eta
[7] = biological target: Protein kinase C delta type (Homo sapiens, UniProt Q05655); experiment: Inhibition of human Protein kinase C delta
[8] = biological target: T3, Protein kinase C zeta type (Homo sapiens, UniProt Q05513); experiment: Inhibition of Protein kinase C zeta
T3 sequence (Q05513 whole entry): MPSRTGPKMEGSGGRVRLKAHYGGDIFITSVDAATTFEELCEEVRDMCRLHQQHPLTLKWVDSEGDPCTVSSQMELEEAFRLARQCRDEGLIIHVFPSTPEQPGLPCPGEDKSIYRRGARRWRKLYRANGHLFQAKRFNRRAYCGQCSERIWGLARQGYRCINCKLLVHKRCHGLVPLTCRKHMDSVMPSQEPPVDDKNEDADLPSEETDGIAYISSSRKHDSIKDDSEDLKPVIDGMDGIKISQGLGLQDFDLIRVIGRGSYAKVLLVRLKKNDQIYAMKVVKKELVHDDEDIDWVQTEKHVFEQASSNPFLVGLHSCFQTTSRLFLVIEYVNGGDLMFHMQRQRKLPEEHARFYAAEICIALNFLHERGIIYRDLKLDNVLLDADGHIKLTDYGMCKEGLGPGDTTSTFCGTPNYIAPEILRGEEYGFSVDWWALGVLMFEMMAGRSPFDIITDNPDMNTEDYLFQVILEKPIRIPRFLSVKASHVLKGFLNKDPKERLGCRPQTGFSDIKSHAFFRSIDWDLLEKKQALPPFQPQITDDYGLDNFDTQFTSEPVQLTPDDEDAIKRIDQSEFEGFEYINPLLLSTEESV

Protein kinase C delta type, sequence (Q05655 whole entry): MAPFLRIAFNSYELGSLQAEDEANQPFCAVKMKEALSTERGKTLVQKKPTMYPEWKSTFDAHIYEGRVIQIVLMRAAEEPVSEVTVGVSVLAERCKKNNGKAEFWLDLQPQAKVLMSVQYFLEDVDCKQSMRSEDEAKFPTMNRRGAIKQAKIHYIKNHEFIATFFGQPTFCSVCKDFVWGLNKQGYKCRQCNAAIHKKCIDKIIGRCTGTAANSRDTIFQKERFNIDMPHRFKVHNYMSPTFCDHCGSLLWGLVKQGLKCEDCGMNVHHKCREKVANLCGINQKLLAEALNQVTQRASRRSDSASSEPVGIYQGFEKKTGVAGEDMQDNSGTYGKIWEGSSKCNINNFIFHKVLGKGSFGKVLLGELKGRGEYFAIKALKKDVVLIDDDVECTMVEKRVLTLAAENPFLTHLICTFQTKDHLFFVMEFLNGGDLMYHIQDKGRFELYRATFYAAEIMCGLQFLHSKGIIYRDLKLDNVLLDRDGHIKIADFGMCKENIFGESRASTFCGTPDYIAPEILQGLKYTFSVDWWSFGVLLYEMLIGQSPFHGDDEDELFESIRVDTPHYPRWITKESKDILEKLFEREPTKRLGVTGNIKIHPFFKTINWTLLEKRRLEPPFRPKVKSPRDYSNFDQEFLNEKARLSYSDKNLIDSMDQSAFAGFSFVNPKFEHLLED
T1 sequence (P05771 whole entry): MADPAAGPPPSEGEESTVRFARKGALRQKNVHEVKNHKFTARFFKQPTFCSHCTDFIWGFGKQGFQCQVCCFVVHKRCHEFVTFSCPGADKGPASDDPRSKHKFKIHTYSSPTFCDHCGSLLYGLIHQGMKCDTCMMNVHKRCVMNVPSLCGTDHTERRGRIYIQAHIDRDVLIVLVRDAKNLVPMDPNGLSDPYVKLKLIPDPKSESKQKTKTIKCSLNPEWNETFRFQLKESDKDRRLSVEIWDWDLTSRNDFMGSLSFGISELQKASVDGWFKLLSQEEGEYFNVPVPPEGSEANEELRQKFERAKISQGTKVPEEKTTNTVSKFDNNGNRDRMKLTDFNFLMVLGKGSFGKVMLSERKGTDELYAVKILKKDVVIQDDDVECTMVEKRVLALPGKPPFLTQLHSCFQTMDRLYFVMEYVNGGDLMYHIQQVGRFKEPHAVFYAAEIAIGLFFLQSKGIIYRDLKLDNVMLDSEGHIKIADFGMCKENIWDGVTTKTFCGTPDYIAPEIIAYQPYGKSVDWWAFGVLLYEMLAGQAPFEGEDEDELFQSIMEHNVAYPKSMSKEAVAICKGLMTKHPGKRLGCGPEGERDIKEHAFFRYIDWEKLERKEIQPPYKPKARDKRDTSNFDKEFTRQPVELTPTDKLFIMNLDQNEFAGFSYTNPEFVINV
Protein kinase C eta type, sequence (P24723 whole entry): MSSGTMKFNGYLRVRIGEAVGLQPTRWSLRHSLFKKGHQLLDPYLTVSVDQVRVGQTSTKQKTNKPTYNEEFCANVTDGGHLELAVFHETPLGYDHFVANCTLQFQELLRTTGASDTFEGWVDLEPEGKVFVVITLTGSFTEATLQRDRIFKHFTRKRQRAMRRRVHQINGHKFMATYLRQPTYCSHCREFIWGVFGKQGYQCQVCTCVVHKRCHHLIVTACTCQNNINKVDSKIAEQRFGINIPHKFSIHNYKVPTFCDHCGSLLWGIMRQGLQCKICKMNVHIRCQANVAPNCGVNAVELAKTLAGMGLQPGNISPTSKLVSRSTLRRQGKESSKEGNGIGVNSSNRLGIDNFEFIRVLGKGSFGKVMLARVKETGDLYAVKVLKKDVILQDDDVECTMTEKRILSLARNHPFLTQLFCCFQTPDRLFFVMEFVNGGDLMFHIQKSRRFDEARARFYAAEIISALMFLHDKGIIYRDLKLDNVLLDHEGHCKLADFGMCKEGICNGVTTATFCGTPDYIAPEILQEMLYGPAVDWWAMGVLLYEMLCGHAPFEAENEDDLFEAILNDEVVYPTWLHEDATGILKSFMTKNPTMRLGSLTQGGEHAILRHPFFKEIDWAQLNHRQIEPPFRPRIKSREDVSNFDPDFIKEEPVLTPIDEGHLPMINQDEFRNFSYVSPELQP

| IC50 [1] [µM] | IC50 [2] [µM] | IC50 [3] [µM] | IC50 [4] [µM] | IC50 [5] [µM] | IC50 [6] [µM] | IC50 [7] [µM] | IC50 [8] [µM] | Structure (SMILES) |
| --- | --- | --- | --- | --- | --- | --- | --- | --- |
| 0.003 | 0.004 | 0.005 | 0.01 | 0.16 | 0.002 | 0.004 | – | O=C(N[C@H]1C[C@H](CO)C[C@H]1OC(=O)c1cc(O)c(C(=O)c2c(O)cccc2C(=O)O)c(O)c1)c1ccc(O)cc1 |
| 0.002 | 0.004 | 0.005 | 0.02 | 0.01 | 0.002 | 0.005 | 1.2 | N[C@@H]1C[C@H](NC(=O)c2ccc(O)cc2)[C@H](OC(=O)c2cc(O)c(C(=O)c3c(O)cccc3C(=O)O)c(O)c2)C1 |
| 0.004 | 0.004 | 0.005 | 0.02 | 0.03 | 0.003 | 0.006 | 2.8 | NC[C@H]1C[C@H](NC(=O)c2ccc(O)cc2)[C@H](OC(=O)c2cc(O)c(C(=O)c3c(O)cccc3C(=O)O)c(O)c2)C1 |
| 0.02 | 0.06 | 0.045 | 0.08 | 0.26 | 0.02 | 0.02 | – | O=C(N[C@H]1C[C@@H](CO)C[C@H]1OC(=O)c1cc(O)c(C(=O)c2c(O)cccc2C(=O)O)c(O)c1)c1ccc(O)cc1 |
| 0.005 | 0.005 | 0.01 | 0.02 | 0.03 | 0.003 | 0.02 | 3.1 | NC[C@@H]1C[C@H](NC(=O)c2ccc(O)cc2)[C@H](OC(=O)c2cc(O)c(C(=O)c3c(O)cccc3C(=O)O)c(O)c2)C1 |
| 0.02 | 0.02 | 0.03 | 0.05 | 0.15 | 0.004 | 0.006 | – | O=C(N[C@H]1C[C@H](O)C[C@H]1OC(=O)c1cc(O)c(C(=O)c2c(O)cccc2C(=O)O)c(O)c1)c1ccc(O)cc1 |
| 0.04 | – | – | 0.07 | – | – | 0.03 | – | O=C(N[C@@H]1CNCCC[C@H]1OC(=O)c1cc(O)c(C(=O)c2c(O)cccc2C(=O)O)c(O)c1)c1ccc(O)cc1 (racemic) [BALANOL] |
| 0.01 | 0.02 | 0.02 | 0.04 | 0.1 | 0.003 | 0.005 | – | O=C(N[C@H]1C[C@@H](O)C[C@H]1OC(=O)c1cc(O)c(C(=O)c2c(O)cccc2C(=O)O)c(O)c1)c1ccc(O)cc1.O=C(N[C@H]1C[C@H](O)C[C@H]1OC(=O)c1cc(O)c(C(=O)c2c(O)cccc2C(=O)O)c(O)c1)c1ccc(O)cc1 (single isomer, unassigned) |

From ChEMBL document CHEMBL1151070 (Bioorg Med Chem Lett, 1995)
